Laboratory results as given in US20250026778A1 (TIUMBIO CO., LTD., priority 2021, published 2025).

Molecular target: T1, his-galectin-3 (Homo sapiens, UniProt P17931)
T1 construct: purchased Abcam
Assay: TR-FRET assay (in vitro galectin-3 binding inhibitory activity test)
Conditions: Table 1; compound at 20 μM; 60 nM his-galectin-3, 15 nM biotin-ASF
Summary of the method: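 Compound is premixed with his-galectin-3 (60 nM final), then biotin-ASF (15 nM), Tb anti-His antibody (2 nM) and streptavidin-d2 (20 nM) are added. After at least 3.5 hours at RT in HEPES/NaCl buffer with Tween 20 and BSA, TR-FRET is read at 615/665 nm. DMSO serves as the uninhibited control, ASF omission as background.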

T1 sequence (P17931 whole entry): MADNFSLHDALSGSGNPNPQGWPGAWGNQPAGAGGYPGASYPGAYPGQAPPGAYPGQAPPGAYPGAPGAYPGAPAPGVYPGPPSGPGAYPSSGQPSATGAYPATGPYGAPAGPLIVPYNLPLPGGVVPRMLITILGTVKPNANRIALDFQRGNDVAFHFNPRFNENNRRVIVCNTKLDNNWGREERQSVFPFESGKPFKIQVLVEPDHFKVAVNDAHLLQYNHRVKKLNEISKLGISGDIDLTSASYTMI

| % Inhibitory activity (at 20 μM) | Compound |
| --- | --- |
| D (inhibition rate was less than 25%) | O=C1CCCC2(O[C@H](CO)[C@H](O)[C@H](n3cc(-c4cc(F)c(F)c(F)c4)nn3)[C@H]2O)N1CC(F)F (stereo partly drawn) [Compound A94, (2R,3R,4S,5R)-7-(2,2-difluoroethyl)-3.5-dihydroxy-2-(hydroxymethyl)-4-(4-(3,4,5-trifluorophenyl)-1H-1,2,3-triazol-1-yl)-1-oxa-7-azaspiro[5.5]undecan-8-one] |

Same assay, conditions: Table 1; compound at 20 μM; 60 nM his-galectin-3, 15 nM biotin-ASF; read-out: % Inhibitory activity (at 20 μM)

| Compound | inhibition at 20 µM [%] |
| --- | --- |
| O=C(O[C@@H]1[C@@H](n2cc(-c3cc(F)c(F)c(F)c3)nn2)[C@@H](O)[C@@H](CO)O[C@@]12CCCO2)c1ccccn1 [Compound A72, (5S,7R,8R,9S,10R)-8-hydroxy-7-(hydroxymethyl)-9-(4-(3,4,5-trifluorophenyl)-1H-1,2,3-triazol-1-yl)-1,6-dioxaspiro[4.5]decan-10-yl picolinate] | 50 to 75 |
| O=P(O)(O)O[C@@H]1[C@@H](n2cc(-c3cc(F)c(F)c(F)c3)nn2)[C@@H](O)[C@@H](CO)O[C@@]12CCCCO2 [Compound A76, (2R,3R,4S,5R,6S)-3-hydroxy-2-(hydroxymethyl)-4-(4-(3,4,5-trifluorophenyl)-1H-1,2,3-triazol-1-yl)-1,7-dioxaspiro[5.5]undecan-5-yl dihydrogen phosphate] | 50 to 75 |
| OC[C@H]1O[C@]2(OCC[C@H]2NCc2cccnc2)[C@H](O)[C@@H](n2cc(-c3cc(F)c(F)c(F)c3)nn2)[C@H]1O [Compound A85] | > 75 |
| OC[C@H]1O[C@]2(OCC[C@H]2NCc2cccc(Cl)c2)[C@H](O)[C@@H](n2cc(-c3cc(F)c(F)c(F)c3)nn2)[C@H]1O [Compound A86, (4R,5S,7R,8R,9S,10R)-4-((3-chlorobenzyl)amino)-7-(hydroxymethyl)-9-(4-(3,4,5-trifluorophenyl)-1H-1,2,3-triazol-1-yl)-1,6-dioxaspiro[4.5]decane-8,10-diol] | > 75 |
| OC[C@H]1O[C@]2(OCC[C@H]2NCc2ccccc2F)[C@H](O)[C@@H](n2cc(-c3cc(F)c(F)c(F)c3)nn2)[C@H]1O [Compound A87, (4R,5S,7R,8R,9S,10R)-4-((2-fluorobenzyl)amino)-7-(hydroxymethyl)-9-(4-(3,4,5-trifluorophenyl)-1H-1,2,3-triazol-1-yl)-1,6-dioxaspiro[4.5]decane-8,10-diol] | 25 to 50 |
| O=C(O[C@@H]1[C@@H](n2cc(-c3cc(F)c(F)c(F)c3)nn2)[C@@H](O)[C@@H](CO)O[C@@]12CCCO2)c1cc(F)cc(F)c1 [Compound A92, (5S,7R,8R,9S,10R)-8-hydroxy-7-(hydroxymethyl)-9-(4-(3,4,5-trifluorophenyl)-1H-1,2,3-triazol-1-yl)-1,6-dioxaspiro[4.5]decan-10-yl 3,5-difluorobenzoate] | 25 to 50 |
| O=C1CCCC2(N1)O[C@H](CO)[C@H](O)[C@H](n1cc(-c3cc(F)c(F)c(F)c3)nn1)[C@H]2OCc1ccccc1 (stereo partly drawn) [Compound A93, (2R,3R,4S,5R)-5-(benzyloxy)-3-hydroxy-2-(hydroxymethyl)-4-(4-(3,4,5-trifluorophenyl)-1H-1,2,3-triazol-1-yl)-1-oxa-7-azaspiro[5.5]undecan-8-one] | < 25 |
| O=C1CCCC2(O[C@H](CO)[C@H](O)[C@H](n3cc(-c4cc(F)c(F)c(F)c4)nn3)[C@H]2O)N1CC1CCS(=O)(=O)CC1 (stereo partly drawn) [Compound A95, (2R,3R,4S,5R)-7-((1,1-dioxidotetrahydro-2H-thiopyran-4-yl)methyl)-3,5-dihydroxy-2-(hydroxymethyl)-4-(4-(3,4,5-trifluorophenyl)-1H-1,2,3-triazol-1-yl)-1-oxa-7-azaspiro[5.5]undecan-8-one] | < 25 |
| OC[C@H]1O[C@]2(OCC[C@H]2NCc2ccc(Cl)cc2)[C@H](O)[C@@H](n2cc(-c3cc(F)c(F)c(F)c3)nn2)[C@H]1O [Compound A97, (4R,5S,7R,8R,9S,10R)-4-((4-chlorobenzyl)amino)-7-(hydroxymethyl)-9-(4-(3,4,5-trifluorophenyl)-1H-1,2,3-triazol-1-yl)-1,6-dioxaspiro[4.5]decane-8,10-diol] | < 25 |

The remaining lines, values ahead:

| inhibition at 20 µM [%] | Compound |
| --- | --- |
| 25 to 50 | O=C(O[C@@H]1[C@@H](n2cc(-c3cc(F)c(F)c(F)c3)nn2)[C@@H](O)[C@@H](CO)O[C@@]12CCCO2)c1cccc(F)c1F [Compound A71, (5S,7R,8R,9S,10R)-8-hydroxy-7-(hydroxymethyl)-9-(4-(3,4,5-trifluorophenyl)-1H-1,2,3-triazol-1-yl)-1,6-dioxaspiro[4.5]decan-10-yl 2,3-difluorobenzoate] |
| < 25 | O=C(O[C@@H]1[C@@H](n2cc(-c3cc(F)c(F)c(F)c3)nn2)[C@@H](O)[C@@H](CO)O[C@@]12CCCO2)c1cccc(C(F)(F)F)c1 [Compound A73, (5S,7R,8R,9S,10R)-8-hydroxy-7-(hydroxymethyl)-9-(4-(3,4,5-trifluorophenyl)-1H-1,2,3-triazol-1-yl)-1,6-dioxaspiro[4.5]decan-10-yl 3-(trifluoromethyl)benzoate] |
| 25 to 50 | O=C(O[C@@H]1[C@@H](n2cc(-c3cc(F)c(F)c(F)c3)nn2)[C@@H](O)[C@@H](CO)O[C@@]12CCCO2)c1ncccc1F [Compound A77, (5S,7R,8R,9S,10R)-8-hydroxy-7-(hydroxymethyl)-9-(4-(3,4,5-trifluorophenyl)-1H-1,2,3-triazol-1-yl)-1,6-dioxaspiro[4.5]decan-10-yl 3-fluoropicolinate] |
| < 25 | O=C(O[C@@H]1[C@@H](n2cc(-c3cc(F)c(F)c(F)c3)nn2)[C@@H](O)[C@@H](CO)O[C@@]12CCCO2)c1ccc(F)cc1F [Compound A78, (5S,7R,8R,9S,10R)-8-hydroxy-7-(hydroxymethyl)-9-(4-(3,4,5-trifluorophenyl)-1H-1,2,3-triazol-1-yl)-1,6-dioxaspiro[4.5]decan-10-yl 2,4-difluorobenzoate] |
| < 25 | O=C(O[C@@H]1[C@@H](n2cc(-c3cc(F)c(F)c(F)c3)nn2)[C@@H](O)[C@@H](CO)O[C@@]12CCCO2)c1ccc(F)cc1 [Compound A79, (5S,7R,8R,9S,10R)-8-hydroxy-7-(hydroxymethyl)-9-(4-(3,4,5-trifluorophenyl)-1H-1,2,3-triazol-1-yl)-1,6-dioxaspiro[4.5]decan-10-yl 4-fluorobenzoate] |
| 25 to 50 | O=C(O[C@@H]1[C@@H](n2cc(-c3cc(F)c(F)c(F)c3)nn2)[C@@H](O)[C@@H](CO)O[C@@]12CCCO2)c1ccncc1 [Compound A80, (5S,7R,8R,9S,10R)-8-hydroxy-7-(hydroxymethyl)-9-(4-(3,4,5-trifluorophenyl)-1H-1,2,3-triazol-1-yl)-1,6-dioxaspiro[4.5]decan-10-yl isonicotinate] |
| < 25 | OC[C@H]1O[C@@]2(CCCO2)[C@H](OCc2cccc(C(F)(F)F)c2)[C@@H](n2cc(-c3cc(F)c(F)c(F)c3)nn2)[C@H]1O [Compound A90, (5S,7R,8R,9S,10R)-7-(hydroxymethyl)-10-((3-(trifluoromethyl)benzyl)oxy)-9-(4-(3,4,5-trifluorophenyl)-1H-1,2,3-triazol-1-yl)-1,6-dioxaspiro[4.5]decan-8-ol] |
| < 25 | OC[C@H]1O[C@@]2(CCCO2)[C@H](OCc2cccc(F)c2)[C@@H](n2cc(-c3cc(F)c(F)c(F)c3)nn2)[C@H]1O [Compound A91, (5S,7R,8R,9S,10R)-10-((3-fluorobenzyl)oxy)-7-(hydroxymethyl)-9-(4-(3,4,5-trifluorophenyl)-1H-1,2,3-triazol-1-yl)-1,6-dioxaspiro[4.5]decan-8-ol] |
| < 25 | OC[C@H]1O[C@]2(OCC[C@H]2NCc2cccc(C(F)(F)F)c2)[C@H](O)[C@@H](n2cc(-c3cc(F)c(F)c(F)c3)nn2)[C@H]1O [Compound A96, (4R,5S,7R,8R,9S,10R)-7-(hydroxymethyl)-4-((3-(trifluoromethyl)benzyl)amino)-9-(4-(3,4,5-trifluorophenyl)-1H-1,2,3-triazol-1-yl)-1,6-dioxaspiro[4.5]decane-8,10-diol] |

Same assay, conditions: Table 3, found values; compound at 20 μM; 60 nM his-galectin-3, 15 nM biotin-ASF; read-out: % Inhibitory activity (at 20 μM)

| inhibition at 20 µM [%] | Compound |
| --- | --- |
| 80.3 | OC[C@H]1O[C@]2(OCC[C@H]2NCc2cccc(Cl)c2)[C@H](O)[C@@H](n2cc(-c3cc(F)c(F)c(F)c3)nn2)[C@H]1O [Compound A86, (4R,5S,7R,8R,9S,10R)-4-((3-chlorobenzyl)amino)-7-(hydroxymethyl)-9-(4-(3,4,5-trifluorophenyl)-1H-1,2,3-triazol-1-yl)-1,6-dioxaspiro[4.5]decane-8,10-diol] |

Same assay, conditions: read-out: % Inhibitory activity (at 20 μM), Table 1; compound at 20 μM; 60 nM his-galectin-3, 15 nM biotin-ASF

| Compound | inhibition at 20 µM [%] |
| --- | --- |
| C[C@@H](O[C@@H]1[C@@H](n2cc(-c3cc(F)c(F)c(F)c3)nn2)[C@@H](O)[C@@H](CO)O[C@@]12CCCO2)C(=O)O [Compound A82, (R)-2-(((5S,7R,8R,9S,10R)-8-hydroxy-7-(hydroxymethyl)-9-(4-(3,4,5-trifluorophenyl)-1H-1,2,3-triazol-1-yl)-1,6-dioxaspiro[4.5]decan-10-yl)oxy)propanoic acid] | < 25 |
| C[C@@H](O[C@@H]1[C@@H](n2cc(-c3cc(F)c(F)c(F)c3)nn2)[C@@H](O)[C@@H](CO)O[C@@]12CCCCO2)C(=O)O [Compound A83, (R)-2-(((2R,3R,4S,5R,6S)-3-hydroxy-2-(hydroxymethyl)-4-(4-(3,4,5-trifluorophenyl)-1H-1,2,3-triazol-1-yl)-1,7-dioxaspiro[5.5]undecan-5-yl)oxy)propanoic acid] | 25 to 50 |
| OC[C@H]1O[C@@]2(CCCO2)[C@H](OCc2cncc(F)c2)[C@@H](n2cc(-c3cc(F)c(F)c(F)c3)nn2)[C@H]1O [Compound A84, (5S,7R,8R,9S,10R)-10-((5-fluoropyridin-3-yl)methoxy)-7-(hydroxymethyl)-9-(4-(3,4,5-trifluorophenyl)-1H-1,2,3-triazol-1-yl)-1,6-dioxaspiro[4.5]decan-8-ol] | < 25 |
| O=C1CCCC2(N1)O[C@H](CO)[C@H](O)[C@H](n1cc(-c3cc(F)c(F)c(F)c3)nn1)[C@H]2O (stereo partly drawn) [Compound A88, (2R,3R,4S,5R)-3,5-dihydroxy-2-(hydroxymethyl)-4-(4-(3,4,5-trifluorophenyl)-1H-1,2,3-triazol-1-yl)-1-oxa-7-azaspiro[5.5]undecan-8-one] | < 25 |
